From patent US20110097264A1, “RADIOLABELING METHOD USING MULTIVALENT GLYCOLIGANDS AS HEPATIC RECEPTOR IMAGING AGENT” (Institute of Nuclear Energy Research Atomic Energy Council, …, priority 2009, published 2011)

Target: T1, ASGPR (Mus musculus, UniProt P24721+P34927)
T1 construct: host or cells: murine hepatocytes (primary, plated)
T1 sequence (P34927 1-284): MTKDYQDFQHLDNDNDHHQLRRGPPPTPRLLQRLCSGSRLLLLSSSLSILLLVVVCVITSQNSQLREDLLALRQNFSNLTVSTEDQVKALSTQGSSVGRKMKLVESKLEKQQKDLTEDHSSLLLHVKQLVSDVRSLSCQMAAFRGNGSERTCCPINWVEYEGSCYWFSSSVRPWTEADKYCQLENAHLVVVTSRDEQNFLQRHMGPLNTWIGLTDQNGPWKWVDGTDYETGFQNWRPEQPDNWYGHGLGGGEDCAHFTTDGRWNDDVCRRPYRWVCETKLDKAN
T1 sequence (P24721 1-301): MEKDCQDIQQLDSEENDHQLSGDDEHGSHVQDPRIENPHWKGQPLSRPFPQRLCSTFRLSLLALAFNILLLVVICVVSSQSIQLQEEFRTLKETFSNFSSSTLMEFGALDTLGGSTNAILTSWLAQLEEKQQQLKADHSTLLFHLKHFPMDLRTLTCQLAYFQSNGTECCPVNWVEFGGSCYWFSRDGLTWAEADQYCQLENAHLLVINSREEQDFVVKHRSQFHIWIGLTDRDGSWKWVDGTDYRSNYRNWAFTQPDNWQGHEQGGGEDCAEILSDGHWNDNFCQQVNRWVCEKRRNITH
Test: Binding strength of saccharide chain peptide and murine hepatocyte (competition with Eu-ASOR, time-resolved fluorescence)
Settings: for IC50: murine hepatocyte, Eu-ASOR 10 nM, 5 mM calcium chloride, 1 hr
Description: With Eu-asialo-orosomucoid (Eu-ASOR) as reference material, the binding strength of saccharide chain peptide and murine hepatocyte is determined by comparing whether the binding degree of saccharide chain peptides, such as DCM-Lys(ah-GalNAc)3, DCM-Lys(Gah-GalNAc)3, DCM-Lys(ah-Lac)3, AHA-Asp[DCM-Lys(ah-Lac)3]2 with murine hepatocyte is higher than that of Eu-ASOR or not, in which the binding degree is expressed by IC50 (concentration of 50% inhibition), and the lower the IC50 is, the higher the binding degree is. The murine hepatocyte (from Lonza Biotechnology Company, Maryland) is plated in a 24-well plate in advance, and the reaction occurs in each well, into which (i) Eu-ASOR 10 nM (ii) hepatocyte basic medium with 5 mM calcium chloride, and (iii) five different concentrations of saccharide chain peptide of 1 uM-0.8 nM are added. After culturing under shaking for 1 hr, the substance that has not been bound to hepatocyte is removed by washing with the hepatocyte basic medium containing calcium chloride. Time-resolved fluorescence spectroscopy is preformed, that is, an enhancement solution (15
uM β-naphthoyl trifluoroacetone, 50 uM tri-n-octyl-phosphine oxide, 0.1 M potassium hydrogen phthalate, 0.1% Triton X-100 in 0.1 M acetic acid, pH 3.2) is added. The enhancement solution reacts with Eu^3+ to form a Eu chelate, which can emit a light of 615 nm when being excited at 340 nm. With the logarithm of the concentration of saccharide chain peptide as X axis, the emitted fluorescence value as Y axis, the fluorescence value without adding glycopeptide being set as 100%, the IC50 of each saccharide chain peptide can be calculated accordingly.

SMILES | IC50 [nM] | binding with ASGPR relative to YEE or YDD (compared with YEE or YDD, from Table 1) [times]
NCCCCCC(=O)N[C@@H](CC(=O)NCCCC[C@@H](C(=O)NCCCCCCOC1O[C@H](CO)[C@@H](O[C@@H]2O[C@H](CO)[C@H](O)[C@H](O)[C@H]2O)[C@H](O)[C@H]1O)N(CC(=O)NCCCCCCOC1O[C@H](CO)[C@@H](O[C@@H]2O[C@H](CO)[C@H](O)[C@H](O)[C@H]2O)[C@H](O)[C@H]1O)CC(=O)NCCCCCCOC1O[C@H](CO)[C@@H](O[C@@H]2O[C@H](CO)[C@H](O)[C@H](O)[C@H]2O)[C@H](O)[C@H]1O)C(=O)NCCCC[C@@H](C(=O)NCCCCCCOC1O[C@H](CO)[C@@H](O[C@@H]2O[C@H](CO)[C@H](O)[C@H](O)[C@H]2O)[C@H](O)[C@H]1O)N(CC(=O)NCCCCCCOC1O[C@H](CO)[C@@H](O[C@@H]2O[C@H](CO)[C@H](O)[C@H](O)[C@H]2O)[C@H](O)[C@H]1O)CC(=O)NCCCCCCOC1O[C@H](CO)[C@@H](O[C@@H]2O[C@H](CO)[C@H](O)[C@H](O)[C@H]2O)[C@H](O)[C@H]1O (stereo partly drawn) [AHA-Asp[DCM-Lys(ahLac)3]2, AHA-Asp[DCM-Lys(ah-Lac)3]2] | 10 | 
CC(=O)N[C@H]1[C@H](OCCCCCCNC(=O)CNC(=O)CN(CC(=O)NCC(=O)NCCCCCCO[C@@H]2O[C@H](CO)[C@H](O)[C@H](O)[C@H]2NC(C)=O)[C@@H](CCCCN)C(=O)NCC(=O)NCCCCCCO[C@@H]2O[C@H](CO)[C@H](O)[C@H](O)[C@H]2NC(C)=O)O[C@H](CO)[C@H](O)[C@@H]1O [DCM-Lys(GahGalNAc)3] |  | 10
CC(=O)N[C@H]1[C@H](OCCCCCCNC(=O)CC[C@H](NC(=O)[C@H](CCC(=O)NCCCCCCO[C@@H]2O[C@H](CO)[C@H](O)[C@H](O)[C@H]2NC(C)=O)NC(=O)[C@@H](N)Cc2ccc(O)cc2)C(=O)NCCCCCCO[C@@H]2O[C@H](CO)[C@H](O)[C@H](O)[C@H]2NC(C)=O)O[C@H](CO)[C@H](O)[C@@H]1O [YEE(ahGalNAc)3, reference compound] | 10 | 
